Assay results as given in US20240132484A1, “BROAD SPECTRUM ANTIVIRAL COMPOUNDS TARGETING THE SKI COMPLEX” (priority 2020, published 2024).
Several values for one entry are separate records, joined by “and”; a condition that tells them apart may be missing. Identical values can stand only once. Like-named read-outs stand apart in the source and are kept apart here.

Experiments:
cells (nuclei count) = conditions: for Relative cell count to DMSO controls, Average 1 μM / Relative cell count to DMSO controls, Average 5 μM / Relative cell count to DMSO controls, Average 10 μM / Relative cell count to DMSO controls, Average 25 μM / Relative cell count to DMSO controls, Average 50 μM: toxicity data, 100=DMSO control; for Toxicity Data, Average, Mean: average of Exp 1-3 (SMW475, SMW477, SMW478); for Relative cell count to DMSO controls, Average (for correlation analysis): average value over the 5 tested concentrations (1 to 50 uM); for Toxicity Data: Average, Mean: average of Exp 1-3 (SMW454, SMW466, SMW480), n 9
SARS2 = assay type: cell-based, SARS-CoV-2; conditions: for Percentage Inhibition Average 1 μM / Screening data (Relative infection to DMSO controls) Average 1 μM: SARS2, 1 μM; for Screening data (Relative infection to DMSO controls) Average 1 μM / Screening data (Relative infection to DMSO controls) Average 5 μM / Screening data (Relative infection to DMSO controls) Average 10 μM / Screening data (Relative infection to DMSO controls) Average 25 μM / Screening data (Relative infection to DMSO controls) Average 50 μM / Average (relative infection to DMSO over the 5 tested concentrations): 100=DMSO control; for Percentage Inhibition Average 5 μM / Screening data (Relative infection to DMSO controls) Average 5 μM: SARS2, 5 μM; for Percentage Inhibition Average 10 μM / Screening data (Relative infection to DMSO controls) Average 10 μM: SARS2, 10 μM; for Percentage Inhibition Average 25 μM / Screening data (Relative infection to DMSO controls) Average 25 μM: SARS2, 25 μM; for Percentage Inhibition Average 50 μM / Screening data (Relative infection to DMSO controls) Average 50 μM: SARS2, 50 μM; for Average (relative infection to DMSO over the 5 tested concentrations): SARS2, average over 1 to 50 uM; for Infection Data, Average, Mean: average of Exp 1-3 (SMW475, SMW477, SMW478)
[1] = Exp 3 (SMW478), 1 uM, Greiner Celigo plates
[2] = Exp 3 (SMW478), 5 uM, Greiner Celigo plates
[3] = Exp 3 (SMW478), 10 uM, Greiner Celigo plates

Row | SMILES | Relative cell count to DMSO controls, Average 1 μM (cells (nuclei count)) | Relative cell count to DMSO controls, Average 5 μM (cells (nuclei count)) | Relative cell count to DMSO controls, Average 10 μM (cells (nuclei count)) | Relative cell count to DMSO controls, Average 25 μM (cells (nuclei count)) | Relative cell count to DMSO controls, Average 50 μM (cells (nuclei count)) | Toxicity Data, Average, Mean (cells (nuclei count); n 9, 1 uM) [%] | Toxicity Data, Average, Mean (cells (nuclei count); n 9, 5 uM) [%] | Toxicity Data, Average, Mean (cells (nuclei count); n 9, 10 uM) [%] | Relative cell count to DMSO controls, Average (for correlation analysis) (cells (nuclei count)) | Percentage Inhibition Average 1 μM (SARS2) [%] | Screening data (Relative infection to DMSO controls) Average 1 μM (SARS2) | Percentage Inhibition Average 5 μM (SARS2) [%] | Screening data (Relative infection to DMSO controls) Average 5 μM (SARS2) | Percentage Inhibition Average 10 μM (SARS2) [%] | Screening data (Relative infection to DMSO controls) Average 10 μM (SARS2) | Percentage Inhibition Average 25 μM (SARS2) [%] | Screening data (Relative infection to DMSO controls) Average 25 μM (SARS2) | Percentage Inhibition Average 50 μM (SARS2) [%] | Screening data (Relative infection to DMSO controls) Average 50 μM (SARS2) | Average (relative infection to DMSO over the 5 tested concentrations) (SARS2) | other results
1 | CCN(CC)CCN(Cc1ccccn1)Cc1ccc(C)o1 [SILCS36] | 87.6 | 84.91 | 88.15 | 91.83 | 63.21 | 87.60 | 84.91 | 88.15 | 83.14 | −14.84 | 114.84 | −11.84 | 111.84 | −2.85 | 102.85 | 42.56 | 57.44 | 72.63 | 27.37 | 82.87 | Toxicity Data, Average, Mean (cells (nuclei count); n 9, 25 uM): 91.83%; Toxicity Data, Average, Mean (cells (nuclei count); n 9, 50 uM): 63.21%; Percentage Infection Relative to Appropriate DMSO Control with Avg Background Subtraction (SARS2; Exp 1 (SMW475), 1 uM, Greiner Celigo plates): 112.32% and 102.95% and 77.60%; Percentage Infection Relative to Appropriate DMSO Control with Avg Background Subtraction (SARS2; Exp 1 (SMW475), 5 uM, Greiner Celigo plates): 103.78% and 96.97% and 70.88%; Percentage Infection Relative to Appropriate DMSO Control with Avg Background Subtraction (SARS2; Exp 1 (SMW475), 10 uM, Greiner Celigo plates): 100.05% and 88.33% and 67.06%; Percentage Infection Relative to Appropriate DMSO Control with Avg Background Subtraction (SARS2; Exp 1 (SMW475), 25 uM, Greiner Celigo plates): 42.48% and 40.16% and 33.52%; Percentage Infection Relative to Appropriate DMSO Control with Avg Background Subtraction (SARS2; Exp 2 (SMW477), 1 uM, Greiner Celigo plates): 136.49% and 133.25% and 131.77%; Percentage Infection Relative to Appropriate DMSO Control with Avg Background Subtraction (SARS2; Exp 2 (SMW477), 5 uM, Greiner Celigo plates): 140.43% and 143.68% and 122.53%; Percentage Infection Relative to Appropriate DMSO Control with Avg Background Subtraction (SARS2; Exp 2 (SMW477), 10 uM, Greiner Celigo plates): 111.26% and 112.57% and 100.88%; Percentage Infection Relative to Appropriate DMSO Control with Avg Background Subtraction (SARS2; Exp 2 (SMW477), 25 uM, Greiner Celigo plates): 70.58% and 67.21% and 40.18%; Percentage Infection Relative to Appropriate DMSO Control with Avg Background Subtraction (SARS2; [1]): 116.69% and 121.41% and 101.10%; Percentage Infection Relative to Appropriate DMSO Control with Avg Background Subtraction (SARS2; [2]): 103.27% and 118.27% and 106.75%; Percentage Infection Relative to Appropriate DMSO Control with Avg Background Subtraction (SARS2; [3]): 99.80% and 128.16% and 117.51%; Infection Data, Average, Mean (SARS2; n 9, 1 uM): 114.84%; Infection Data, Average, Mean (SARS2; n 9, 5 uM): 111.84%; Infection Data, Average, Mean (SARS2; n 9, 10 uM): 102.85%; Infection Data, Average, Mean (SARS2; n 9, 25 uM): 57.44%; Infection Data, Average, Mean (SARS2; n 9, 50 uM): 27.37%
2 | COC(=O)c1csc(CN(CCN(C)C)Cc2cccs2)c1 [SILCS29] | 104.12 | 110.81 | 90.99 | 101.15 | 67.81 | 104.12 | 110.81 | 90.99 | 94.98 | 15.78 | 84.22 | 35.17 | 64.83 | 7.20 | 92.80 | 67.28 | 32.72 | 93.68 | 6.32 | 56.18 | Toxicity Data, Average, Mean (cells (nuclei count); n 9, 25 uM): 101.15%; Toxicity Data, Average, Mean (cells (nuclei count); n 9, 50 uM): 67.81%; Percentage Infection Relative to Appropriate DMSO Control with Avg Background Subtraction (SARS2; Exp 1 (SMW475), 5 uM, single well): 1.25% and −0.49% and 2.25%; Percentage Infection Relative to Appropriate DMSO Control with Avg Background Subtraction (SARS2; Exp 1 (SMW475), 10 uM, single well): 57.43% and 82.75% and 79.22%; Percentage Infection Relative to Appropriate DMSO Control with Avg Background Subtraction (SARS2; Exp 1 (SMW475), 25 uM, single well): 13.47% and 21.51% and 26.64%; Percentage Infection Relative to Appropriate DMSO Control with Avg Background Subtraction (SARS2; Exp 1 (SMW475), 50 uM, single well): 13.24% and 10.68% and 10.82%; Percentage Infection Relative to Appropriate DMSO Control with Avg Background Subtraction (SARS2; Exp 2 (SMW477), 1 uM, single well): 96.79% and 118.82% and 112.77%; Percentage Infection Relative to Appropriate DMSO Control with Avg Background Subtraction (SARS2; Exp 2 (SMW477), 5 uM, single well): 84.54% and 117.80% and 116.09%; Percentage Infection Relative to Appropriate DMSO Control with Avg Background Subtraction (SARS2; Exp 2 (SMW477), 10 uM, single well): 78.23% and 124.37% and 115.30%; Percentage Infection Relative to Appropriate DMSO Control with Avg Background Subtraction (SARS2; Exp 2 (SMW477), 50 uM, single well): 2.61% and 6.87% and 8.07%; Percentage Infection Relative to Appropriate DMSO Control with Avg Background Subtraction (SARS2; [1]): 97.82% and 84.39% and 100.08%; Percentage Infection Relative to Appropriate DMSO Control with Avg Background Subtraction (SARS2; [2]): 95.72% and 88.47% and 77.81%; Percentage Infection Relative to Appropriate DMSO Control with Avg Background Subtraction (SARS2; [3]): 99.71% and 91.75% and 106.45%; Percentage Infection Relative to Appropriate DMSO Control with Avg Background Subtraction (SARS2; Exp 3 (SMW478), 50 uM, Greiner Celigo plates): 6.88% and −1.19% and −1.09%; Infection Data, Average, Mean (SARS2; n 9, 1 uM): 84.22%; Infection Data, Average, Mean (SARS2; n 9, 5 uM): 64.83%; Infection Data, Average, Mean (SARS2; n 9, 10 uM): 92.80%; Infection Data, Average, Mean (SARS2; n 9, 25 uM): 32.72%; Infection Data, Average, Mean (SARS2; n 9, 50 uM): 6.32%
3 | Cc1ccc(CN(CCN(C)C)Cc2ccc(CO)o2)s1 [SILCS13] | 105.73 | 107.19 | 105.25 | 104.32 | 78.61 | – | – | – | 100.22 | 5.30 | 94.70 | 2.13 | 97.87 | −20.89 | 120.89 | −42.17 | 142.17 | 14.36 | 85.64 | 108.25 | Toxicity Data: Average, Mean (cells (nuclei count); 1 uM): 105.73%; Toxicity Data: Average, Mean (cells (nuclei count); 5 uM): 107.19%; Toxicity Data: Average, Mean (cells (nuclei count); 10 uM): 105.25%; Toxicity Data: Average, Mean (cells (nuclei count); 25 uM): 104.32%; Toxicity Data: Average, Mean (cells (nuclei count); 50 uM): 78.61%; Percentage Infection Relative to DMSO Control, Average, Mean (SARS2): 85.64% and 142.17% and 120.89% and 97.87% and 94.70%
4 | Cc1ccc(CN(CCN(C)C)Cc2ccccc2)o1 [SILCS11] | 111.01 | 106.15 | 120.55 | 105.91 | 80.38 | – | – | – | 104.80 | 24.29 | 75.71 | 21.46 | 78.54 | 45.84 | 54.16 | 64.99 | 35.01 | 79.69 | 20.31 | 52.75 | Toxicity Data, Average, Mean (relative to DMSO control) (cells (nuclei count); Average of Exp 1-3, 1 uM): 111.01%; Toxicity Data, Average, Mean (relative to DMSO control) (cells (nuclei count); Average of Exp 1-3, 5 uM): 106.15%; Toxicity Data, Average, Mean (relative to DMSO control) (cells (nuclei count); Average of Exp 1-3, 10 uM): 120.55%; Toxicity Data, Average, Mean (relative to DMSO control) (cells (nuclei count); Average of Exp 1-3, 25 uM): 105.91%; Toxicity Data, Average, Mean (relative to DMSO control) (cells (nuclei count); Average of Exp 1-3, 50 uM): 80.38%; SARS2 antiviral activity (SARS2): improved activity over SILCS1
